# Measurements from US11401303B2, “Synthetic peptide BRAP and application in preparation of anti-inflammatory drug for COVID-19 thereof” (TAIAN CITY QIHANG BIOTECHNOLOGY CO., priority 2020, dated 2022).
# pIC50: −log10 of the molar value. Ends that are not written are not given here.
# How the values were obtained:
# [1] = system: OVA-induced allergic rhinitis; assay: Rat allergic nasal inflammation (OVA-induced allergic rhinitis), intranasal administration; type: in vivo, SD rat; settings: bilateral nasal cavities 50 μL/side, 4 weeks
# Protocol: SD rat modeling: two stages of intraperitoneal injection for sensitization and intranasal dripping for stimulation. Ovalbumin was injected intraperitoneally, and 1 mg ovalbumin (V-class Sigma, USA) was dissolved in 1 ml normal saline, and 30 mg of aluminum hydroxide was added as an immunologic adjuvant. Each rat was intraperitoneally injected 1 ml ovalbumin suspension prepared above with 1 ml/time every other day and for 7 times in total; and stimulated intranasally with ovalbumin on the 15th day; 20 mg ovalbumin (V-class Sigma, USA) were dissolved in 1 ml normal saline to be prepared into a 2% solution; and the 2% ovalbumin solution was used for stimulation by nasal dripping; and 50 ul nasal drips were administered in each of the nasal cavities of each rat for 7 consecutive days.
# Blank control group: 30 mg of aluminum hydroxide+1 ml of normal saline were mixed evenly, and then injected intraperitoneally; and the method was the same as the above.
# Normal saline was dripped into nasal cavities on the 15th day.
# After the final nasal dripping was performed, each rat was observed and evaluated according to a scoring table: Sneezing, nose scratching, gasping and nasal secretions
# 1. Administration way: a drug was administered with a micro-sampling gun, bilateral nasal cavities of a rat were administered with 50 μL/side, after being administered for 20 min, a 2% ovalbumin solution was administered to bilateral nasal cavities of the rat; 50 μL/side nasal dripping was administered for provocation; the above treatment was performed for 4 consecutive weeks to observe the pharmacodynamic effect.
# High-dose synthetic peptide brap: a synthetic peptide brap freeze-dried powder (5 mg/bottle) was taken, and 1.63 ml sterile saline solution was added for dissolving;
# medium-dose synthetic peptide brap: a synthetic peptide brap freeze-dried powder (5 mg/bottle) was taken, and 4.89 ml sterile saline solution was added for dissolving;
# low-dose synthetic peptide brap: a synthetic peptide brap freeze-dried powder (5 mg/bottle) was taken, and 14.67 ml sterile saline solution was added for dissolving;
# [2] = system: BK-induced pulmonary microvascular leakage; assay: BK-induced pulmonary microvascular leakage in guinea pigs (Evans blue in lung tissue); type: in vivo, guinea pig; settings: intranasal 50 μL/side/day for 3 days
# Protocol: Male guinea pigs weighing 400 g±5% were randomly divided into 6 groups, 6 per group.
# 1. normal control group: an equal volume of normal saline was injected intravenously on the lateral foot vein, for 3 days;
# 2. model group: an equal volume of normal saline was injected intravenously on the lateral foot vein, for 3 days;
# 3. positive control group: 1.25 mg/3 ml/kg BW dexamethasone was injected intravenously on the lateral foot vein, for 3 days;
# 4. high-dose synthetic peptide brap group: bilateral nasal cavities of the guinea pig were injected the synthetic peptide brap having a concentration of 3.0 mM/L by a micro-sampling gun with 50 μL/side/day for 3 days; […]
# 2. […] The solution was centrifuged for 5 min at 1500 rpm/min; supernatant was taken to measure the absorbance with a wavelength of 620 nm.
# 3. Preparation of an EB standard curve: 0.1 mL 0.1% EB solution was taken accurately and added 0.9 mL normal saline to be prepared into 1 mL 0.01% EB standard solution; 0.1 mL EB standard solution was taken and added formamide to 2 mL with a final concentration of 5 mg/L; then the solution was diluted by formamide to 4, 2, 1, and 0.5 mg/L. An absorbancy OD value was measured at a wavelength of 620 nm; OD value was denoted y-coordinate; EB concentration was denoted by x-coordinate; then a standard curve of OD value-EB concentration was drawn, as shown in FIG. 7A.
# [3] = Limit test on intravenous injection at 2000 mg/kg BW dose level; type: in vivo, Konmin mouse
# Protocol: I. Test Animal (Subject): Konmin Mouse: Healthy, Adult, Male, Weight≤20 g, and n=5 pcs
# III. Administration Route and Dose: 2000 mg/kg BW was Injected Via a Tail Vein
# Administration capacity: the maximum injection capacity of the mice tail vein was 0.5 ml/once, slow injection
# Dose and mode of administration: 40 mg/1.5 ml working solution was administered for 3 times within 9 h.
# 1) a test substance (synthetic peptide brap) having a dose of 2000 mg/kg was injected to the first Konmin mouse via tail vein;
# 2) whether of causing toxic responses (initial symptom, starting time, namely, time period after administration, severity and duration) was observed and recorded;
# 3) if the animal died, the response before being at death's door and the occurrence time of death were recorded.
# [4] = molecular target: Bradykinin B2 receptor (Homo sapiens, UniProt P30411); assay: cell-based
# [5] = system: ROS; assay: ROS fluorescence intensity in lung tissue of LPS-induced mice by flow cytometry; type: in vivo, Balb/C mice
# Protocol: 1. About 100 mg fresh left lung tissue from each group of mice constructed in example 9 was taken and washed for three times with PBS to remove blood;
# 2. the tissue was put in a nylon net, ground by a grinding rod, and washed by PBS;
# 3. a cell suspension was collected, and filtered by a 200-mesh sieve to remove tissue blocks;
# 4. the cell suspension was collected and centrifuged for 5 min at 1000 rpm/min;
# 5. cellular supernatant was removed and PBS was added for resuspending;
# 6. 10 μmol/L DCFH-DA was prepared with a serum-free culture solution;
# 7. cells were centrifuged to remove PBS, and the above probe diluent was added to make the cell concentration being 10^6/ml;
# 8. the cells were incubated for 30 min at 37° C., and shaken off for once every 3 min;
# 9. the cells were centrifuged for 5 min at 1000 rpm/min, and cell precipitates were resuspended on a serum-free culture medium;
# 10. step 9 was repeated for twice;
# 11. 500 μL PBS was added to resuspend cells, and flow cytometry was used to detect mean fluorescence intensity.
# [6] = 2000 mg/kg BW via tail vein in 3 injections, individual mouse
# Bradykinin B2 receptor, sequence (P30411 whole entry): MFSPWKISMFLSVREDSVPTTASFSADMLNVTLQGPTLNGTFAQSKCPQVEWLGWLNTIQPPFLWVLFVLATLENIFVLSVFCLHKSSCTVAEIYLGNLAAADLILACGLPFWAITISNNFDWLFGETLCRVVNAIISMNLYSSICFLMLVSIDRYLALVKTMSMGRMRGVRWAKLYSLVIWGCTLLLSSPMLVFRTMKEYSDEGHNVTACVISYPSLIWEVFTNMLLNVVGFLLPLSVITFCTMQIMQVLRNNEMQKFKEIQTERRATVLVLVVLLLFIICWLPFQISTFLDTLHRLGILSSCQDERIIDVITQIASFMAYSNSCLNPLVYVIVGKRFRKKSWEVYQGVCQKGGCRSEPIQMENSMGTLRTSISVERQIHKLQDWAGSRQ
sequence,measurement,setting,value
RVLNGPEAPA [brap],Scoring change before and after treatment,"[1]; all dose groups of the peptide, continued OVA provocation",decreases
same,Allergic rhinitis symptom scoring compared with the model group,"[1]; high, medium and low dose, significant difference",can improve the OVA-induced allergic rhinitis symptoms
same,Content of EB in lung tissues compared with the positive control group (dexamethasone),"[2]; P>0.05, except for the low-dose group",no significant difference
same,Content of EB in lung tissues compared with the model group,"[2]; low, medium, high dose (0.33, 1.0, 3.0 mM/L), P<0.01, dose-response relationship",obviously lower than that in the model group
same,"Death situation/survival animals, 72 h after administering",[3]; [6],No death
same,Toxic response manifestation,[3]; [6],No abnormal
same,Toxicity in the limit test,"[3]; intravenous injection of 2000 mg/kg BW, mice n=5",no toxicity was found
same,LD50 at 9 h,"[3]; male, Konmin, in vivo, 2000 mg/kg BW, intravenous, mouse, judgment rule if survival animals ≥3 (5 of 5 survived)",> 2000 mg/kg
same,pIC50,[4],~3.00
same,ROS content in lung tissues,[5]; induced by LPS for 6 h,obviously reducing the increase in ROS content
same,ROS content in lung tissue,[5]; induced by LPS for 12 h,obviously reducing the increase in ROS content
same,ROS content in lung tissues,"[5]; intranasal administration, LPS-induced mice",reducing the overly increased ROS content
same,ROS content in lung tissues,"[5]; intravenous injection, LPS-induced mice",obviously decreases the overly increased ROS content
